From article PMC9822402, “Investigation on Hydrazonobenzenesulfonamides as Human Carbonic Anhydrase I, II, IX and XII Inhibitors” (Molecules, 2022)

Key:
hCA II = target: T1, hCA II (Homo sapiens, UniProt P00918); test: stopped-flow CO2 hydrase assay; format: biochemical; settings: read-out: KI (nM) ^1 / CAII
T1 construct: gene CA2; recombinant, obtained in-house

hCA I = target: T2, hCA I (Homo sapiens, UniProt P00915); test: stopped-flow CO2 hydrase assay; format: biochemical; settings: read-out: KI (nM) ^1 / CAI
T2 construct: gene CA1; recombinant, obtained in-house
T2 sequence (P00915 2-261): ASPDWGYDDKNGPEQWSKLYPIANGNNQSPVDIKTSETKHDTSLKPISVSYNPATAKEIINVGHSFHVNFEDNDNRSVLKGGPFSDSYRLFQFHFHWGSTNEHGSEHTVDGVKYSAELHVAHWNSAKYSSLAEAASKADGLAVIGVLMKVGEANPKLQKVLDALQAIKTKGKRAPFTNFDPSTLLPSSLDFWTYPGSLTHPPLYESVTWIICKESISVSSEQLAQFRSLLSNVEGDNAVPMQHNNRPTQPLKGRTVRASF

| Compound | Ki (hCA II) [nM] | Ki (hCA I) [nM] |
| --- | --- | --- |
| COc1cccc(/C=N/NC(=O)C2CCN(C(=O)c3ccc(S(N)(=O)=O)cc3)CC2)c1 [compound 8, (E)-4-(4-(2-(3-methoxybenzylidene)hydrazinecarbonyl)piperidine-1-carbonyl)benzenesulfonamide] | 44.3 | 382 |
| COc1ccc(/C=N/NC(=O)C2CCN(C(=O)c3ccc(S(N)(=O)=O)cc3)CC2)c(OC)c1 [compound 10, (E)-4-(4-(2-(2,4-dimethoxybenzylidene)hydrazinecarbonyl)piperidine-1-carbonyl)benzenesulfonamide] | 160 | 1890 |
| COc1ccc(/C=N/NC(=O)C2CCN(C(=O)c3ccc(S(N)(=O)=O)cc3)CC2)cc1OC [compound 11, (E)-4-(4-(2-(3,4-dimethoxybenzylidene)hydrazinecarbonyl)piperidine-1-carbonyl)benzenesulfonamide] | 55.1 | 344 |
| COc1cc(/C=N/NC(=O)C2CCN(C(=O)c3ccc(S(N)(=O)=O)cc3)CC2)cc(OC)c1OC [compound 14, (E)-4-(4-(2-(3,4,5-trimethoxybenzylidene)hydrazinecarbonyl)piperidine-1-carbonyl)benzenesulfonamide] | 67.6 | 384 |
| COc1ccc(/C=N/NC(=O)C2CCN(C(=O)c3ccc(S(N)(=O)=O)cc3)CC2)c(Br)c1OC [compound 15, (E)-4-(4-(2-(2-bromo-3,4-dimethoxybenzylidene)hydrazinecarbonyl)piperidine-1-carbonyl)benzenesulfonamide] | 65.5 | 1540 |
| NS(=O)(=O)c1ccc(C(=O)N2CCC(C(=O)N/N=C/c3ccc4ccccc4c3)CC2)cc1 [compound 16, (E)-4-(4-(2-((naphthalen-2-yl)methylene)hydrazinecarbonyl)piperidine-1-carbonyl)benzenesulfonamide] | 209 | 4000 |
| COc1c(/C=N/NC(=O)C2CCN(C(=O)c3ccc(S(N)(=O)=O)cc3)CC2)ccc2ccccc12 [compound 17, (E)-4-(4-(2-((1-methoxynaphthalen-2-yl)methylene)hydrazinecarbonyl)piperidine-1-carbonyl)benzenesulfonamide] | 25.2 | 334 |
| NS(=O)(=O)c1ccc(C(=O)N2CCC(C(=O)N/N=C/c3ccc(C(F)(F)F)cc3)CC2)cc1 [compound 18, (E)-4-(4-(2-(4-(trifluoromethyl)benzylidene)hydrazinecarbonyl)piperidine-1-carbonyl)benzenesulfonamide] | 37.4 | 1750 |
| NS(=O)(=O)c1ccc(C(=O)N2CCC(C(=O)N/N=C/c3cccc(F)c3)CC2)cc1 [compound 19, (E)-4-(4-(2-(3-fluorobenzylidene)hydrazinecarbonyl)piperidine-1-carbonyl)benzenesulfonamide] | 92.4 | 392 |
| NS(=O)(=O)c1ccc(C(=O)N2CCC(C(=O)N/N=C/c3ccc(F)cc3)CC2)cc1 [compound 20, (E)-4-(4-(2-(4-fluorobenzylidene)hydrazinecarbonyl)piperidine-1-carbonyl)benzenesulfonamide] | 17.1 | 340 |
| NS(=O)(=O)c1ccc(C(=O)N2CCC(C(=O)N/N=C/c3cccc([N+](=O)[O-])c3)CC2)cc1 [compound 21, (E)-4-(4-(2-(3-nitrobenzylidene)hydrazinecarbonyl)piperidine-1-carbonyl)benzenesulfonamide] | 46.2 | 1820 |
| NS(=O)(=O)c1ccc(C(=O)N2CCC(C(=O)N/N=C/c3cccc(Cl)c3)CC2)cc1 [compound 24, (E)-4-(4-(2-(3-chlorobenzylidene)hydrazinecarbonyl)piperidine-1-carbonyl)benzenesulfonamide] | 55.4 | 398 |

Stronger by Ki (hCA II), values ahead:

| Ki (hCA II) [nM] | Ki (hCA I) [nM] | Compound |
| --- | --- | --- |
| 4.41 | 18.5 | NS(=O)(=O)c1ccc(C(=O)N2CCC(C(=O)N/N=C/c3ccccc3)CC2)cc1 [compound 5, (E)-4-(4-(2-benzylidenehydrazinecarbonyl)piperidine-1-carbonyl)benzenesulfonamide] |
| 5.62 | 3240 | Cc1ccc(/C=N/NC(=O)C2CCN(C(=O)c3ccc(S(N)(=O)=O)cc3)CC2)cc1 [compound 6, (E)-4-(4-(2-(4-methylbenzylidene)hydrazinecarbonyl)piperidine-1-carbonyl)benzenesulfonamide] |
| 2.94 | 45.5 | COc1ccccc1/C=N/NC(=O)C1CCN(C(=O)c2ccc(S(N)(=O)=O)cc2)CC1 [compound 7, (E)-4-(4-(2-(2-methoxybenzylidene)hydrazinecarbonyl)piperidine-1-carbonyl)benzenesulfonamide] |
| 4.48 | 389 | COc1ccc(/C=N/NC(=O)C2CCN(C(=O)c3ccc(S(N)(=O)=O)cc3)CC2)cc1 [compound 9, (E)-4-(4-(2-(4-methoxybenzylidene)hydrazinecarbonyl)piperidine-1-carbonyl)benzenesulfonamide] |
| 1.75 | 24.3 | COc1ccc(OC)c(/C=N/NC(=O)C2CCN(C(=O)c3ccc(S(N)(=O)=O)cc3)CC2)c1 [compound 12, (E)-4-(4-(2-(2,5-dimethoxybenzylidene)hydrazinecarbonyl)piperidine-1-carbonyl)benzenesulfonamide] |
| 3.78 | – | COc1cc(OC)c(OC)cc1/C=N/NC(=O)C1CCN(C(=O)c2ccc(S(N)(=O)=O)cc2)CC1 [compound 13, (E)-4-(4-(2-(2,4,5-trimethoxybenzylidene)hydrazinecarbonyl)piperidine-1-carbonyl)benzenesulfonamide] |
| 4.92 | 384 | NS(=O)(=O)c1ccc(C(=O)N2CCC(C(=O)N/N=C/c3ccc([N+](=O)[O-])cc3)CC2)cc1 [compound 22, (E)-4-(4-(2-(4-nitrobenzylidene)hydrazinecarbonyl)piperidine-1-carbonyl)benzenesulfonamide] |
| 6.51 | 482 | NS(=O)(=O)c1ccc(C(=O)N2CCC(C(=O)N/N=C/c3ccccc3Cl)CC2)cc1 [compound 23, (E)-4-(4-(2-(2-chlorobenzylidene)hydrazinecarbonyl)piperidine-1-carbonyl)benzenesulfonamide] |
| 6.65 | 336 | NS(=O)(=O)c1ccc(C(=O)N2CCC(C(=O)N/N=C/c3ccc(Cl)cc3Cl)CC2)cc1 [compound 25, (E)-4-(4-(2-(2,4-dichlorobenzylidene)hydrazinecarbonyl)piperidine-1-carbonyl)benzenesulfonamide] |
| 3.64 | 800 | NS(=O)(=O)c1ccc(C(=O)N2CCC(C(=O)N/N=C/c3cc(Cl)ccc3Cl)CC2)cc1 [compound 26, (E)-4-(4-(2-(2,5-dichlorobenzylidene)hydrazinecarbonyl)piperidine-1-carbonyl)benzenesulfonamide] |
| 3.57 | 24.6 | NS(=O)(=O)c1ccc(C(=O)N2CCC(C(=O)N/N=C/c3c(Cl)cccc3Cl)CC2)cc1 [compound 27, (E)-4-(4-(2-(2,6-dichlorobenzylidene)hydrazinecarbonyl)piperidine-1-carbonyl)benzenesulfonamide] |
